One assay addresses T1, wild-type thin filaments (Homo sapiens, UniProt P19429+P45379+P63316).
T1 construct: isolate troponin from 100 mg of donor heart tissue; from tissue; host or cells: troponin: human donor heart; actin: rabbit skeletal muscle
Description: IVMA Ca2+-activation curves, wild-type thin filaments. Format: biochemical. The settings on record: ratio of EC50 in presence and absence of compound, phosphorylated and unphosphorylated states. Here is the method:
(§1) Thin filaments were reconstituted with 10 nM rabbit skeletal or mouse cardiac muscle α-actin (labeled with TRITC phalloidin), tropomyosin (40–60 nM), and troponin (60 nM) to study Ca^2+-regulation of filament motility by the quantitative in vitro motility assay (IVMA) (Fraser and Marston, [1995]; Messer et al., [2007]). Thin filament movement over a bed of immobilized rabbit fast skeletal muscle heavy meromyosin (100 μg/ml) was compared in paired motility cells, in which troponin varied by a single factor (mutation, phosphorylation state, or treatment with drug). The temperature was set to 29°C. Filament movement was recorded and analyzed as previously described (Marston et al., [1996]), yielding two parameters, the fraction of filaments moving and the speed of moving filaments. Only the fraction of filaments motile is used in this study.
The fraction motile was measured over a range of Ca^2+ concentrations to generate Ca^2+-activation curves. The data were fitted to the 4-variable Hill equation to yield a value for EC50 and nH. Most assays of the effect of compounds are single measurements.
EC50 for Ca2+ activation of phosphorylated and unphosphorylated thin filaments incorporating troponin from HCM and DCM tissue samples that are uncoupled was measured by in vitro motility assay in the presence and absence of 100 µM EGCG. […]

Assay [1] relates to transgenic HCM mouse model. Also noted: method as in Tadano et al., 2010. Conditions: ref Tadano et al., 2010; cited from earlier work.
Assay [2] relates to isolated cardiomyocytes from ACTC E99K HCM transgenic mice. As to the kind of experiment: Lusitropic effect of dobutamine in isolated cardiomyocytes. Type of assay: cell-based. The settings on record: blunted in ACTC E99K mouse cardiomyocytes; preliminary experiments.
From the text: The main effect of uncoupling of the modulation of Ca^2+ sensitivity by TnI phosphorylation is the loss of the lusitropic response to beta adrenergic stimulation, which is usually accompanied by blunting of the whole physiological adrenergic response.
In assay [3] the target is T2, tropomyosin E180G mutant-containing thin filaments (Homo sapiens, UniProt P19429+P45379+P63316).
T2 construct: isolate troponin from 100 mg of donor heart tissue; from tissue; host or cells: troponin: human donor heart; tropomyosin: baculovirus/Sf9 (gift); actin: rabbit fast-twitch skeletal muscle
As to the kind of experiment: Single [Ca2+] in vitro motility assay screen for re-coupling. Type of assay: biochemical. The settings on record: for Coupling Difference (Initial Screen E180G): 100 μM compound, difference between motility (%) in phosphorylated and unphosphorylated thin filaments, TPM1 E180G, >10% = re-coupling; for EC50: dose-response of % motility difference at 0.037 μM Ca2+, Hill fit. Here is the method: as §1
For drug screening, motility was measured with paired phosphorylated and unphosphorylated tropomyosin E180G mutant-containing thin filaments at a fixed 0.037 μM Ca^2+. Most assays were single measurements.
For the rapid screening of compounds, we devised a single Ca^2+ concentration assay. This is illustrated in Figures 2A,B for quercetin. The test system contains skeletal muscle actin, human sequence recombinant tropomyosin 1.1 containing the E180G HCM-associated mutation and human cardiac troponin from donor hearts in the phosphorylated and unphosphorylated form. At 0.037 μM Ca^2+ the filaments are about 40% motile irrespective of phosphorylation level whilst when quercetin is added the phosphorylated Ca^2+ activity curve shifts to the right and % motility at 0.037 μM Ca^2+ drops, whilst the unphosphorylated level is unchanged. We have set a difference between phosphorylated and unphosphorylated >10% as indicating re-coupling activity. This assay method can also be used to construct a dose-response curve as shown. We investigated compounds in 4 categories.
Figure 2 Single [Ca^2+] screen for re-coupling compounds. […] Solid lines, phosphorylated state; dotted lines, unphosphorylated state. Purple lines and points, E180G thin filaments; green lines and points, E180G thin filaments + Quercetin (B) Dose -response curve for quercetin recoupling activity measured at a constant concentration of 0.037 μM Ca^2+. INSET, kinetic analysis of dose response curve; difference between phosphorylated and unphosphorylated states is plotted against quercetin concentration. The Hill equation is fitted to the data, EC50 = 8 μM. (C,D) The effect of 100 μM drug treatment on the difference between % of motility of phosphorylated and unphosphorylated tropomyosin E180G mutant-containing thin filaments at 0.037 μM Ca^2+. (C) EGCG-related molecules (for structures 1–28 see Figure S1 and Table 1). (D) Silybin, related compounds and other HsP90 inhibitors and Ca^2+ desensitizers. The threshold for positive re-coupling was set at a 10% difference (dotted line).

Assay [4] deals with mutant-containing thin filaments. As to the kind of experiment: IVMA Ca2+-activation curves, collected uncoupled mutant thin filaments. Conditions: every uncoupling mutation tested; 100 μM EGCG. Format: biochemical. How it is done: as §1, with “Only the fraction of filaments motile is used in this study.” left out
(§2) The fraction motile was measured over a range of Ca^2+ concentrations to generate Ca^2+-activation curves. […]
We measured the Ca^2+ activation of contractility using an in vitro motility assay that measures the movement of reconstituted thin filaments over a bed of immobilized myosin heads. […] Thus, the effect of EGCG is independent of the mutation that induced uncoupling; in addition, both in man and cat, HCM cases were found where no mutation in sarcomeric genes was detected yet the thin filaments were uncoupled and they could also be re-coupled by EGCG (Bayliss et al., [2012]; Messer et al., [2016]). […]

The target in assay [5] is T3, thin filaments containing TnC G159D (TNNC1 G159D, DCM) (Homo sapiens, UniProt P19429+P45379+P63316, G159D).
T3 construct: TnC G159D mutant troponin was extracted from a mutant human heart sample; from tissue; host or cells: mutant human heart sample (troponin); rabbit skeletal muscle (actin)
As to the kind of experiment: IVMA Ca2+-activation curves, TNNC1 G159D. The settings on record: phosphorylated and unphosphorylated TnC G159D thin filaments. Type of assay: biochemical.
From the text: Recombinant human sequence tropomyosin was a gift from Kristen Nowak and Elyshia MacNamara, University, Western Australia. Wild-type α-tropomyosin (Tpm1.1) and mutant E180G tropomyosin were expressed in a baculovirus/Sf9 system (Akkari et al., [2002]; Marston et al., [2013]). Skeletal muscle F-actin and myosin were isolated from rabbit fast-twitch skeletal muscle as previously described (Messer et al., [2007]). TnC G159D mutant troponin was extracted from a mutant human heart sample (Dyer et al., [2009]), E99K mutant cardiac actin was extracted from the E99K transgenic mouse heart (Song et al., [2013]).
Thin filaments were reconstituted with 10 nM rabbit skeletal or mouse cardiac muscle α-actin (labeled with TRITC phalloidin), tropomyosin (40–60 nM), and troponin (60 nM) to study Ca^2+-regulation of filament motility by the quantitative in vitro motility assay (IVMA) (Fraser and Marston, [1995]; Messer et al., [2007]). […] Filament movement was recorded and analyzed as previously described (Marston et al., [1996]), yielding two parameters, the fraction of filaments moving and the speed of moving filaments. […]
as §2

[6] abbreviates: dose response of motile percentage, Figure S2B.

Entries after “also recorded” stand apart in the source; their conditions may differ.

Turning to `O=C(O[C@@H]1Cc2c(O)cc(O)cc2O[C@@H]1c1cc(O)c(O)c(O)c1)c1cc(O)c(O)c(O)c1` [EGCG, epigallocatechin-3 gallate], the “effect on Ca2+-sensitivity of wild-type thin filaments, in words” value on wild-type thin filaments is “significant desensitizer”. Moreover, the “impaired pump function due to diastolic dysfunction, in words” value in assay [1] is recorded as “restored the impaired pump function”. In addition, in assay [2], the “lusitropic effect of dobutamine, in words” value is listed as “anomalous”. In assay [3] (0.037 μM Ca2+), the “Coupling Difference (Initial Screen E180G)” value (shortened to “Coupling Difference”) worked out at 23.0%. In addition, the EC50 in assay [3] turned out to be 59 µM. Also, the “restoration of coupling in uncoupled thin filaments, in words” value in assay [4] is “restore the coupling”.
With `COc1cc([C@H]2Oc3cc([C@H]4Oc5cc(O)cc(O)c5C(=O)[C@@H]4O)ccc3O[C@@H]2CO)ccc1O` [Silybin A], in assay [5], the “effect on Ca2+-activation curves (desensitizer / re-coupler), in words” value was “pure desensitizer”. The “Coupling Difference” value in assay [3] (0.037 μM Ca2+) came to 5%. In addition, the “re-coupling activity (in words)” value in assay [3] (E180G thin filaments, 0.037 μM Ca2+) is recorded as “complex dose sensitive”.
For `COc1cc([C@@H]2Oc3cc([C@H]4Oc5cc(O)cc(O)c5C(=O)[C@@H]4O)ccc3O[C@H]2CO)ccc1O` [Silybin B], in assay [5], the “effect on Ca2+-activation curves (desensitizer / re-coupler), in words” value is on record as “pure recoupler; also recorded: pure recoupling”. Moreover, in assay [2], the “lusitropic effect of dobutamine, in words” value is listed as “restored”. Further, the “Coupling Difference” value in assay [3] (0.037 μM Ca2+) is on record as 55%. Further, in assay [3] (setting [6]), the “dose at which recoupling begins” value is 50 µM and the “dose of peak recoupling” value was found to be 100 µM. Besides, the EC50 in assay [3] stood at 39 µM.

As usually defined, the EC50 is the concentration giving half of the maximal effect. A high value points to lower potency in that assay.

These data come from PMC5881522, “Molecular Defects in Cardiac Myofilament Ca^2+-Regulation Due to Cardiomyopathy-Linked Mutations Can Be Reversed by Small Molecules Binding to Troponin” (Frontiers in Physiology, 2018).
